Laboratory results from BigSolDB 2.1.

Oc1ccc(OCc2ccccc2)cc1
solubility (mole fraction)
Details | 283.15 K | 288.15 K | 293.15 K | 298.15 K | 303.15 K | 308.15 K | 313.15 K
in 1,4-dioxane | – | 0.0903 | 0.131 | 0.19 | 0.258 | 0.342 | 0.435
in acetonitrile | 0.036 | 0.0447 | 0.0546 | 0.0669 | 0.0821 | 0.101 | 0.125
in cyclohexane | 0.000542 | 0.000933 | 0.00156 | 0.00261 | 0.00396 | 0.0058 | 0.00802
in ethanol | 0.0319 | 0.0396 | 0.0484 | 0.0595 | 0.0735 | 0.0905 | 0.111
in ethyl acetate | 0.0773 | 0.129 | 0.201 | 0.293 | 0.399 | 0.519 | 0.632
in isopropanol | 0.0317 | 0.0383 | 0.0476 | 0.0585 | 0.0736 | 0.0921 | 0.116
in methanol | 0.0381 | 0.0476 | 0.0593 | 0.0739 | 0.0908 | 0.111 | 0.136
in n-butanol | 0.0227 | 0.0282 | 0.0346 | 0.0434 | 0.0543 | 0.0666 | 0.0835
in n-hexane | 0.000327 | 0.000453 | 0.000749 | 0.00108 | 0.00161 | 0.00226 | 0.00313
in n-octanol | 0.00719 | 0.0101 | 0.0136 | 0.0171 | 0.0224 | 0.0289 | 0.0355
in n-propanol | 0.0287 | 0.0352 | 0.0428 | 0.0521 | 0.0642 | 0.0794 | 0.0994
in water | 5e-06 | 7e-06 | 9e-06 | 1.3e-05 | 1.7e-05 | 2.3e-05 | 3e-05
